In ChEMBL document CHEMBL4002583, “Amino derivatives of platanic acid act as selective and potent inhibitors of butyrylcholinesterase” (Eur J Med Chem, 2017):

How the values were obtained:
Cholinesterase [1] = target: T1, Cholinesterase (Equus caballus, UniProt P81908); assay: Competitive inhibition of equine serum BChE using butyrylthiocholine iodide as substrate preincubated for 20 mins followed by substrate addition measured every 1 min for 30 mins by Dixon plot method
Cholinesterase [2] = target: T1, Cholinesterase; assay: Uncompetitive inhibition of equine serum BChE using butyrylthiocholine iodide as substrate preincubated for 20 mins followed by substrate addition measured every 1 min for 30 mins by Cornish-Bowden plot method
Acetylcholinesterase [3] = target: T2, Acetylcholinesterase (Electrophorus electricus, UniProt O42275); assay: Competitive inhibition of electric eel AChE using acetylthiocholine iodide as substrate preincubated for 20 mins followed by substrate addition measured every 1 min for 30 mins by Dixon plot method
T2 sequence (O42275 whole entry): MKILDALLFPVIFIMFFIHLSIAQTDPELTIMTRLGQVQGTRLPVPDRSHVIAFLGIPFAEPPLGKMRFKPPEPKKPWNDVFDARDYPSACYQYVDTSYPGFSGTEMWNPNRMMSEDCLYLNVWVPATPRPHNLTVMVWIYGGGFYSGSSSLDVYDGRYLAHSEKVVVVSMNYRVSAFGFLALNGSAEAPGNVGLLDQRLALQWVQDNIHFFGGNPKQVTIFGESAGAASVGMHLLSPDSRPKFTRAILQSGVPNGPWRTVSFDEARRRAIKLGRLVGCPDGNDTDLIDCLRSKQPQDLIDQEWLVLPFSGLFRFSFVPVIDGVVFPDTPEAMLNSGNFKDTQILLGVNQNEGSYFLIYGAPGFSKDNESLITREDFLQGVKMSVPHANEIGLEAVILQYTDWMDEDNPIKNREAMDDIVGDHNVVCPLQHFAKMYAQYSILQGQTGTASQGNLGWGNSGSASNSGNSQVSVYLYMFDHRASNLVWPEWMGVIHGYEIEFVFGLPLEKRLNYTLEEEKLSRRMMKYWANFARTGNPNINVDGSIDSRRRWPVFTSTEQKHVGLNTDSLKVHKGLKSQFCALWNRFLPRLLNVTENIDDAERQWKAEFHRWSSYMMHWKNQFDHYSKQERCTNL

Acetylcholinesterase [4] = target: T2, Acetylcholinesterase; assay: Uncompetitive inhibition of electric eel AChE using acetylthiocholine iodide as substrate preincubated for 20 mins followed by substrate addition measured every 1 min for 30 mins by Cornish-Bowden plot method
[5] = Selectivity ratio of Ki for electric eel AChE to Ki for equine serum BChE
[6] = Chemical stability in TRIS buffer at pH 8 measured over 2880 mins by HPLC method; assay type: physicochemical; conditions: pH 8, 48 h
[7] = Chemical stability in TRIS buffer at pH 8 measured over 2880 mins in presence of BChE by HPLC method; assay type: physicochemical; conditions: pH 8, 48 h
[8] = Selectivity ratio of Ki for equine serum BChE to Ki for electric eel AChE
Acetylcholinesterase [9] = target: Acetylcholinesterase (Homo sapiens, UniProt P22303); assay: Inhibition of […] using acetyl-(beta-methyl)thiocholine as substrate preincubated for 30 mins followed by substrate addition measured after 25 mins by spectrophotometric method
Sequence of Acetylcholinesterase (Homo sapiens, UniProt P22303) (P22303 whole entry): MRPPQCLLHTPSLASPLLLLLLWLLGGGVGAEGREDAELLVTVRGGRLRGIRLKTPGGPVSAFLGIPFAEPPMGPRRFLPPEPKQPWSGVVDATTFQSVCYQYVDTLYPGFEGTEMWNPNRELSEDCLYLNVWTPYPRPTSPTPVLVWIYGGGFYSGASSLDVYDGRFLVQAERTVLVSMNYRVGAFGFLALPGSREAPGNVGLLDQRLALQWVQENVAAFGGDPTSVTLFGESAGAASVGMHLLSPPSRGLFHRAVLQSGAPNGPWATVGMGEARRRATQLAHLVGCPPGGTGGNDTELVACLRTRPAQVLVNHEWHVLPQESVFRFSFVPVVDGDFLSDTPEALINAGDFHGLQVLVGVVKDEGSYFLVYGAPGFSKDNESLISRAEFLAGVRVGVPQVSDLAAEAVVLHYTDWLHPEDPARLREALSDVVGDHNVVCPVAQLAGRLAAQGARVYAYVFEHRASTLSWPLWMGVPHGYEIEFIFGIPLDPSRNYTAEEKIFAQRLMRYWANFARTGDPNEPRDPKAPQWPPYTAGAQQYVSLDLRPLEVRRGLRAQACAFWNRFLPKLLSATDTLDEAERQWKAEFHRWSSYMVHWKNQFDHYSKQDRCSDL

Cholinesterase [10] = target: T3, Cholinesterase (Homo sapiens, UniProt P06276); assay: Inhibition of […] using S-butyrylthiocholine as substrate preincubated for 30 mins followed by substrate addition measured after 25 mins by spectrophotometric method
T3 sequence (P06276 whole entry): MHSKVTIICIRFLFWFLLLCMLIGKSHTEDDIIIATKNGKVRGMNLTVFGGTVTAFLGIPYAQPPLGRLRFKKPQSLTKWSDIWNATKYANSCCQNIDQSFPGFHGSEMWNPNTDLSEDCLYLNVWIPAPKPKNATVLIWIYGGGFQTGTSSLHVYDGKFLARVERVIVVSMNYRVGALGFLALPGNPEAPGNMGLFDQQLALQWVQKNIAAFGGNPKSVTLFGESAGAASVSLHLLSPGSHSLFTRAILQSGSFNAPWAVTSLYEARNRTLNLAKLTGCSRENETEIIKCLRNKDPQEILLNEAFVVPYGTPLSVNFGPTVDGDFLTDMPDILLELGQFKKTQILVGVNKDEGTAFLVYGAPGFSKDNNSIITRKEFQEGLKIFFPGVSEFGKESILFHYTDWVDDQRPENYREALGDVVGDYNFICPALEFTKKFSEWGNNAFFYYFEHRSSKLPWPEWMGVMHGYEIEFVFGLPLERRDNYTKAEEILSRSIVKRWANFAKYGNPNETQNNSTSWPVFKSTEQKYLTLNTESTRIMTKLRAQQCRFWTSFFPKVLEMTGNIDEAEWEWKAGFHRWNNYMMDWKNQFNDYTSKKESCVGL

Cholinesterase [11] = target: T3, Cholinesterase; assay: Inhibition of human serum BChE using butyrylthiocholine iodide as substrate by Ellman's method

T1 sequence (P81908 whole entry): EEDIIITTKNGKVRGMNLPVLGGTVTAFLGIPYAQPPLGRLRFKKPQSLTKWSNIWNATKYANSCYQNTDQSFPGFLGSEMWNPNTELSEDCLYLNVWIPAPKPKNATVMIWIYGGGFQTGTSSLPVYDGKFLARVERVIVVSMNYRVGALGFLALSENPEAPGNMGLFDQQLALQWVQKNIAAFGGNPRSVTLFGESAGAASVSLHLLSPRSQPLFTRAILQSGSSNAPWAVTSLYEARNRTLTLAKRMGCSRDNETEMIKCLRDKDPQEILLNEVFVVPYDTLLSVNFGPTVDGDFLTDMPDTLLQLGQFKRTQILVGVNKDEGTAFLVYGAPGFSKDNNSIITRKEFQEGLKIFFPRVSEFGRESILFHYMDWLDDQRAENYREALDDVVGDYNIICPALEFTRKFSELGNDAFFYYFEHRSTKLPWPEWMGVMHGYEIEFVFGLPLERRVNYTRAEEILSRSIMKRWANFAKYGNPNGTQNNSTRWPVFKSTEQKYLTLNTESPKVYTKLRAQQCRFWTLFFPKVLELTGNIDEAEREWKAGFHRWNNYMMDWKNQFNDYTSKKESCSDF

Row | SMILES | Ki (Cholinesterase [1]) | Ki (Cholinesterase [2]) | Ki (Acetylcholinesterase [3]) | Ki (Acetylcholinesterase [4]) | Ratio Ki [5] | Stability [6] | Stability [7] | Ratio Ki [8] | IC50 (Acetylcholinesterase [9]) | IC50 (Cholinesterase [10]) | Ki (Cholinesterase [11])
1 | CC(=O)[C@@H]1CC[C@]2(N)CC[C@]3(C)[C@H](CC[C@@H]4[C@@]5(C)CC[C@H](O)C(C)(C)[C@@H]5CC[C@]43C)[C@@H]12 | 6.39 µM | 38.9 µM | 20.9 µM | > 120 µM | 3.3 | – | – | – | – | – | –
2 | CC(=O)[C@@H]1CC[C@]2(C(=O)OCc3ccccc3)CC[C@]3(C)[C@H](CC[C@@H]4[C@@]5(C)CC[C@@H](N)C(C)(C)[C@@H]5CC[C@]43C)[C@@H]12 | 1.8 µM | 5.98 µM | 20.3 µM | > 90 µM | 11 | – | – | – | – | – | –
3 | C[C@@H](N)[C@@H]1CC[C@]2(C(=O)OCc3ccccc3)CC[C@]3(C)[C@H](CC[C@@H]4[C@@]5(C)CC[C@H](O)C(C)(C)[C@@H]5CC[C@]43C)[C@@H]12 | 0.07 µM | 0.19 µM | 11 µM | 47.8 µM | 157 | Stable | Stable | – | – | – | –
4 | COC(=O)[C@]12CC[C@@H](NC(C)=O)[C@@H]1[C@H]1CC[C@@H]3[C@@]4(C)CC[C@H](OC(C)=O)C(C)(C)[C@@H]4CC[C@@]3(C)[C@]1(C)CC2 | > 20 µM | – | 14.1 µM | – | – | – | – | > 1.4 | – | – | –
5 | CC(=O)O[C@H]1CC[C@]2(C)[C@H]3CC[C@@H]4[C@H]5[C@H](C(C)=O)CC[C@]5(C(=O)OCc5ccccc5)CC[C@@]4(C)[C@]3(C)CC[C@H]2C1(C)C | 33.1 µM | > 400 µM | 0.09 µM | 0.21 µM | – | – | – | 368 | – | – | –
6 | C[C@@H](N)[C@@H]1CC[C@]2(CO)CC[C@]3(C)[C@H](CC[C@@H]4[C@@]5(C)CC[C@H](O)C(C)(C)[C@@H]5CC[C@]43C)[C@@H]12 | 0.14 µM | 1.89 µM | 53.1 µM | 104 µM | 378 | – | – | – | – | – | –
7 | CC(=O)O[C@H]1CC[C@]2(C)[C@H]3CC[C@@H]4[C@H]5[C@H]([C@@H](C)N)CC[C@]5(C(=O)O)CC[C@@]4(C)[C@]3(C)CC[C@H]2C1(C)C | 0.1 µM | 2.75 µM | 20.9 µM | – | 209 | – | – | – | – | – | –
8 | CC(=O)O[C@H]1CC[C@]2(C)[C@H]3CC[C@@H]4[C@H]5[C@H]([C@H](C)N)CC[C@]5(C(=O)OCc5ccccc5)CC[C@@]4(C)[C@]3(C)CC[C@H]2C1(C)C | 0.38 µM | 6.78 µM | 10.7 µM | 34.2 µM | 28 | – | – | – | – | – | –
9 | CC(=O)OC[C@]12CC[C@@H]([C@@H](C)N)[C@@H]1[C@H]1CC[C@@H]3[C@@]4(C)CC[C@H](OC(C)=O)C(C)(C)[C@@H]4CC[C@@]3(C)[C@]1(C)CC2 | 0.06 µM | 0.37 µM | 4.5 µM | – | 75 | – | – | – | – | – | –
10 | CC(=O)O[C@H]1CC[C@]2(C)[C@H]3CC[C@@H]4[C@H]5[C@H](C(C)=O)CC[C@]5(C(N)=O)CC[C@@]4(C)[C@]3(C)CC[C@H]2C1(C)C | > 10 µM | – | 8.16 µM | 10.9 µM | – | – | – | > 1.2 | – | – | –
11 | CC(=O)[C@@H]1CC[C@]2(C(=O)NCCN)CC[C@]3(C)[C@H](CC[C@@H]4[C@@]5(C)CC[C@H](O)C(C)(C)[C@@H]5CC[C@]43C)[C@@H]12 | 8.37 µM | > 110 µM | 7.18 µM | 9.71 µM | – | – | – | 1.2 | – | – | –
12 | CC(=O)O[C@H]1CC[C@]2(C)[C@H]3CC[C@@H]4[C@H]5[C@H]([C@@H](C)N)CC[C@]5(C(=O)OCc5ccccc5)CC[C@@]4(C)[C@]3(C)CC[C@H]2C1(C)C | 0.01 µM | 0.4 µM | 8.51 µM | 17 µM | 851 | – | – | – | – | – | –
13 | CC(=O)O[C@H]1CC[C@]2(C)[C@H]3CC[C@@H]4[C@H]5[C@H](/C(C)=N/O)CC[C@]5(C(=O)O)CC[C@@]4(C)[C@]3(C)CC[C@H]2C1(C)C | – | – | – | – | – | Stable | Stable | – | – | – | –
14 | CCC(=O)O/N=C(\C)[C@@H]1CC[C@]2(C(=O)OC)CC[C@]3(C)[C@H](CC[C@@H]4[C@@]5(C)CC[C@H](OC(C)=O)C(C)(C)[C@@H]5CC[C@]43C)[C@@H]12 | > 30 µM | – | > 30 µM | – | – | – | – | – | – | – | –
15 | CC(=O)[C@@H]1CC[C@]2(C(=O)O)CC[C@]3(C)[C@H](CC[C@@H]4[C@@]5(C)CC[C@H](O)C(C)(C)[C@@H]5CC[C@]43C)[C@@H]12 [PLATANIC ACID] | > 50 µM | – | 31.6 µM | 36.9 µM | – | – | – | > 1.6 | – | – | –
16 | COC(=O)[C@]12CC[C@@H](/C(C)=N/OC(C)=O)[C@@H]1[C@H]1CC[C@@H]3[C@@]4(C)CC[C@H](OC(C)=O)C(C)(C)[C@@H]4CC[C@@]3(C)[C@]1(C)CC2 | > 15 µM | – | > 15 µM | – | – | – | – | – | – | – | –
17 | COC(=O)[C@]12CC[C@@H]([C@@H](C)NC(C)=O)[C@@H]1[C@H]1CC[C@@H]3[C@@]4(C)CC[C@H](OC(C)=O)C(C)(C)[C@@H]4CC[C@@]3(C)[C@]1(C)CC2 | > 4 µM | – | > 4 µM | – | – | – | – | – | – | – | –
18 | CC(=O)[C@@H]1CC[C@]2(C(=O)OCc3ccccc3)CC[C@]3(C)[C@H](CC[C@@H]4[C@@]5(C)CCC(=O)C(C)(C)[C@@H]5CC[C@]43C)[C@@H]12 | > 10 µM | – | 2.63 µM | 4.59 µM | – | – | – | > 3.8 | – | – | –
19 | CC(=O)[C@@H]1CC[C@]2(C(=O)OCc3ccccc3)CC[C@]3(C)[C@H](CC[C@@H]4[C@@]5(C)CC[C@H](N)C(C)(C)[C@@H]5CC[C@]43C)[C@@H]12 | 0.56 µM | 3.5 µM | 13.4 µM | 76.6 µM | 24 | – | – | – | – | – | –
20 | CC(=O)O[C@H]1CC[C@]2(C)[C@H]3CC[C@@H]4[C@H]5[C@H](C(C)=O)CC[C@]5(C(=O)NCCN)CC[C@@]4(C)[C@]3(C)CC[C@H]2C1(C)C | 11.9 µM | 17.1 µM | 3.06 µM | 6.83 µM | – | – | – | 3.9 | – | – | –
21 | CC(=O)[C@@H]1CC[C@]2(C(=O)OCc3ccccc3)CC[C@]3(C)[C@H](CC[C@@H]4[C@@]5(C)CC[C@H](O)C(C)(C)[C@@H]5CC[C@]43C)[C@@H]12 | > 10 µM | – | 0.59 µM | 4.06 µM | – | – | – | > 17 | – | – | –
22 | CC(C)c1ccc(NC(=O)Oc2ccc3c(c2)[C@]2(C)CCN[C@@H]2N3)cc1 | – | – | – | – | – | – | – | – | 0.11 µM | 0.001 µM | 0.000131 µM
23 | COC(=O)[C@]12CC[C@@H]([C@H](C)NC(C)=O)[C@@H]1[C@H]1CC[C@@H]3[C@@]4(C)CC[C@H](OC(C)=O)C(C)(C)[C@@H]4CC[C@@]3(C)[C@]1(C)CC2 | > 40 µM | – | 11.8 µM | 45.6 µM | – | – | – | > 3.4 | – | – | –
24 | COC(=O)[C@]12CC[C@@H]([C@@H](C)N)[C@@H]1[C@H]1CC[C@@H]3[C@@]4(C)CC[C@H](OC(C)=O)C(C)(C)[C@@H]4CC[C@@]3(C)[C@]1(C)CC2 | 0.09 µM | 0.05 µM | > 4 µM | – | > 44 | – | – | – | – | – | –
25 | CC(=O)O[C@H]1CC[C@]2(C)[C@H]3CC[C@@H]4[C@H]5[C@H](C(C)=O)CC[C@]5(C(=O)O)CC[C@@]4(C)[C@]3(C)CC[C@H]2C1(C)C | > 10 µM | – | 9 µM | – | – | – | – | > 1.1 | – | – | –
26 | COC(=O)[C@]12CC[C@@H]([C@H](C)N)[C@@H]1[C@H]1CC[C@@H]3[C@@]4(C)CC[C@H](OC(C)=O)C(C)(C)[C@@H]4CC[C@@]3(C)[C@]1(C)CC2 | 0.23 µM | 3.89 µM | > 40 µM | > 80 µM | > 173 | – | – | – | – | – | –
27 | COC(=O)[C@]12CC[C@@H](C(C)=O)[C@@H]1[C@H]1CC[C@@H]3[C@@]4(C)CC[C@H](O)C(C)(C)[C@@H]4CC[C@@]3(C)[C@]1(C)CC2 | > 4 µM | – | 0.76 µM | – | – | – | – | > 5 | – | – | –
